Measured values as given in US10307498B2, “Cleaning and disinfecting composition” (American Sterilizer Company, priority 2015, dated 2019).

Assay: Stability of peracetic acid over a single disinfection cycle at different disinfection solution temperatures, FIGS. 4A-4D
Type: physicochemical
Details: PAA alone or combined with builders/part (B)
Excerpt: FIGS. 4A-4D are graphs that show the stability of peracetic acid over the time required for a single disinfection cycle, at different disinfection solution temperatures, and as a function of the presence or absence of two different builders formulations as well as the supplemental medium (B) of the present invention.
In the following Examples 6-8, parts (A) and (B) are as described above for Examples 1-5. Builders 1 contains two sodium phosphates, benzotriazole, tetrasodium ethylene diamine tetraacetate, a sodium molybdate, sodium hydroxide, an ethoxylated polyoxypropylene, a polyacrylate, a sodium phosphate, and water. Builders 2 contains a sodium phosphate, a sodium benzotriazole and a sodium salt of ethylene diamine tetraacetic acid.
FIGS. 4A-4D show the stability of peracetic acid over the time required for a single disinfection cycle (stability), at different disinfection solution temperatures when used alone (FIG. 4A), or in combination with prior art Builders 1 (FIG. 4B) or Builders 2 (FIG. 4C) or the supplemental medium part (B) of the present invention (FIG. 4D). The trend of each line can be used to understand the kinetics of stability (or conversely, the rate and amount of degradation of PAA). […]

## CC(=O)OO [PAA, peracetic acid]
  stability of PAA solution: relatively stable
